Source: ChEMBL document CHEMBL1781885, “Cytotoxic norsesquiterpene peroxides from the endophytic fungus Talaromyces flavus isolated from the mangrove plant Sonneratia apetala” (J Nat Prod, 2011)
≈ marks a conversion by molar mass, not a printed value. Calls of active or inactive are those of the source. No cut-off for these calls is given here.

Legend:
[1] = system: MCF7; assay: Cytotoxicity against human MCF7 cells after 6 days by MTT method; assay type: functional, cell-based; settings: MCF7, 144 h
[2] = system: MDA-MB-435; assay: Cytotoxicity against human MDA-MB-435 after 6 days by MTT method; assay type: functional, cell-based; settings: MDA-MB-435, 144 h
[3] = system: HepG2; assay: Cytotoxicity against human HepG2 after 6 days by MTT method; assay type: functional, cell-based; settings: HepG2, 144 h
[4] = system: PC-3; assay: Cytotoxicity against human PC3 cells after 6 days by MTT method; assay type: functional, cell-based; settings: PC-3, 144 h
[5] = system: Artemia salina; assay: Toxicity in Artemia salina; assay type: organism-based; settings: in vivo
[6] = system: HeLa; assay: Cytotoxicity against human HeLa cells after 6 days by MTT method; assay type: functional, cell-based; settings: 144 h
[7] = system: Staphylococcus aureus; assay: Antimicrobial activity against Staphylococcus aureus ATCC 27154 at 50 ug/ml; assay type: functional, organism-based
[8] = system: Escherichia coli; assay: Antimicrobial activity against Escherichia coli ATCC 25922 at 50 ug/ml; assay type: functional, organism-based
[9] = system: Sarcina ventriculi; assay: Antimicrobial activity against Sarcina ventriculi ATCC 29068 at 50 ug/ml; assay type: functional
[10] = system: Pseudomonas aeruginosa; assay: Antimicrobial activity against Pseudomonas aeruginosa ATCC 25668 at 50 ug/ml; assay type: functional, organism-based
[11] = system: Candida albicans; assay: Antimicrobial activity against Candida albicans ATCC 10231 at 50 ug/ml; assay type: functional, organism-based
[12] = system: Aspergillus niger; assay: Antimicrobial activity against Aspergillus niger ATCC 13496 at 50 ug/ml; assay type: functional, organism-based

SMILES	IC50 [1]	IC50 [2]	IC50 [3]	IC50 [4]	LD50 [5]	IC50 [6]	Activity [7]	Activity [8]	Activity [9]	Activity [10]	Activity [11]	Activity [12]
COc1cccc2c1C(=O)c1c(O)c3c(c(O)c1C2=O)C[C@@](O)(C(=O)CO)C[C@@H]3O[C@H]1C[C@H](N)[C@@H](O)[C@H](C)O1 [EPIRUBICIN]	0.56 µg/mL (≈ 1.03 µM)	0.33 µg/mL (≈ 0.607 µM)	0.56 µg/mL (≈ 1.03 µM)	0.16 µg/mL (≈ 0.294 µM)	–	–	–	–	–	–	–	–
CC1(C)CCC(=O)[C@@]2(C)OO[C@@H]3C[C@@]12CC[C@H]3O [MERULIN A]	4.17 µg/mL (≈ 16.4 µM)	1.9 µg/mL (≈ 7.47 µM)	6.79 µg/mL (≈ 26.7 µM)	1.82 µg/mL (≈ 7.16 µM)	< 10 ppm	7.97 µg/mL (≈ 31.3 µM)	inactive	inactive	inactive	inactive	inactive	inactive
CC(=O)O[C@H]1CC[C@]23C[C@@H]1OO[C@]2(C)C(=O)CCC3(C)C [TALAPEROXIDE A]	19.8 µg/mL (≈ 66.7 µM)	11.8 µg/mL (≈ 39.7 µM)	12.9 µg/mL (≈ 43.6 µM)	5.7 µg/mL (≈ 19.2 µM)	< 10 ppm	13.7 µg/mL (≈ 46.2 µM)	inactive	inactive	inactive	inactive	inactive	inactive
CC(=O)O[C@H]1CC[C@]23C[C@@H]1OO[C@@]2(C)C(=O)CCC3(C)C [TALAPEROXIDE B]	1.33 µg/mL (≈ 4.49 µM)	2.78 µg/mL (≈ 9.38 µM)	1.29 µg/mL (≈ 4.35 µM)	0.89 µg/mL (≈ 3 µM)	< 10 ppm	1.73 µg/mL (≈ 5.84 µM)	inactive	inactive	inactive	inactive	inactive	inactive
CC1(C)CCC(=O)[C@@]2(C)OO[C@H]3C[C@]12CCC3=O [TALAPEROXIDE C]	6.63 µg/mL (≈ 26.3 µM)	2.64 µg/mL (≈ 10.5 µM)	15.1 µg/mL (≈ 59.9 µM)	4.34 µg/mL (≈ 17.2 µM)	< 10 ppm	12.7 µg/mL (≈ 50.4 µM)	inactive	inactive	inactive	inactive	inactive	inactive
CC1(C)CCC(=O)[C@]2(C)OO[C@H]3C[C@]12CCC3=O [TALAPEROXIDE D]	1.92 µg/mL (≈ 7.61 µM)	0.91 µg/mL (≈ 3.61 µM)	0.9 µg/mL (≈ 3.57 µM)	0.7 µg/mL (≈ 2.77 µM)	< 10 ppm	1.31 µg/mL (≈ 5.19 µM)	inactive	inactive	inactive	inactive	inactive	inactive
